In US8889591B2, “Herbicidal compositions comprising 4-amino-3-chloro-5-fluoro-6-(4-chloro-2-fluoro-3-methoxyphenyl)pyridine-2-carboxylic acid or a derivative thereof and bromobutide, daimuron, oxaziclomefone or pyributicarb” (Dow Agrosciences LLC, priority 2012, dated 2014):

Assays:
SCPJU = test: Postemergence foliar-applied greenhouse weed control, direct-seeded rice system; format: in vivo, Schoenoplectus juncoides (Roxb.) Palla
Excerpt: Seeds or nutlets of the desired test plant species were planted in a soil matrix prepared by mixing a loam or sandy loam soil (e.g., 28.6 percent silt, 18.8 percent clay, and 52.6 percent sand, with a pH of about 5.8 and an organic matter content of about 1.8 percent) and calcareous grit in an 80 to 20 ratio. The soil matrix was contained in plastic pots with a volume of 1 quart and a surface area of 83.6 square centimeters (cm^2). When required to ensure good germination and healthy plants, a fungicide treatment and/or other chemical or physical treatment was applied. The plants were grown for 8-22 days in a greenhouse with an approximate 14 h photoperiod which was maintained at about 29° C. during the day and 26° C. during the night. Nutrients (Peters Excel® 15-5-15 5-Ca 2-Mg and iron chelate) were applied in the irrigation solution as needed and water was added on a regular basis. Supplemental lighting was provided with overhead metal halide 1000-Watt lamps as necessary. The plants were employed for testing when they reached the first through fourth true leaf stage. […]
(§1) Treatment requirements were calculated based upon the rates being tested, the concentration of active ingredient or acid equivalent in the formulation, and a 12 mL application volume at a rate of 187 L/ha.
For treatments comprised of formulated compounds, measured amounts of compounds were placed individually in 25 mL glass vials and diluted in a volume of 1.25% (v/v) Agri-Dex® crop oil concentrated to obtain 12× stock solutions. […]
For treatments comprised of formulated and technical compounds, weighed amounts of the technical materials were placed individually in 25 mL glass vials and dissolved in a volume of 97:3 v/v acetone/DMSO to obtain 12× stock solutions, and measured amounts of the formulated compounds were placed individually in 25 mL glass vials and diluted in a volume of 1.5% (v/v) crop oil concentrate or water to obtain 12× stock solutions. […]

ECHCO = test: as above; format: in vivo, Echinochloa colona (L.) Link
Excerpt: Seeds or nutlets of the desired test plant species were planted in a soil matrix prepared by mixing a loam or sandy loam soil (e.g., 28.6 percent silt, 18.8 percent clay, and 52.6 percent sand, with a pH of about 5.8 and an organic matter content of about 1.8 percent) and calcareous grit in an 80 to 20 ratio. The soil matrix was contained in plastic pots with a volume of 1 quart and a surface area of 83.6 square centimeters (cm^2). When required to ensure good germination and healthy plants, a fungicide treatment and/or other chemical or physical treatment was applied. The plants were grown for 8-22 days in a greenhouse with an approximate 14 h photoperiod which was maintained at about 29° C. during the day and 26° C. during the night. Nutrients (Peters Excel® 15-5-15 5-Ca 2-Mg and iron chelate) were applied in the irrigation solution as needed and water was added on a regular basis. Supplemental lighting was provided with overhead metal halide 1000-Watt lamps as necessary. The plants were employed for testing when they reached the first through fourth true leaf stage.
Treatments consisted of the acid or esters of 4-amino-3-chloro-5-fluoro-6-(4-chloro-2-fluoro-3-methoxy-phenyl)pyridine-2-carboxylic acid (Compound A), each formulated as an SC (suspension concentrate), and various herbicidal components alone and in combination. Forms of compound A were applied on an acid equivalent basis.
Other herbicidal components were applied on an active ingredient basis and included diamuron formulated as an EC (emulsifiable concentrate) and oxaziclomefone (technical grade material).
as §1
For treatments comprised of formulated compounds, measured amounts of compounds were placed individually in 25 mL glass vials and diluted in a volume of 1.25% (v/v) Agri-Dex® crop oil concentrated to obtain 12× stock solutions. […] Application solutions were prepared by adding an appropriate amount of each stock solution (e.g., 1 mL) and diluted to the appropriate final concentrations with the addition of 10 mL of an aqueous mixture of 1.25% (v/v) crop oil concentrate so that the final spray solutions contained 1.25+/−0.05% (v/v) crop oil concentrate.
For treatments comprised of technical compounds, weighed amounts can be placed individually in 25 mL glass vials and dissolved in a volume of 97:3 v/v acetone/DMSO to obtain 12× stock solutions. […] Application solutions can be prepared by adding an appropriate amount of each stock solution (e.g., 1 mL) and diluted to the appropriate final concentrations with the addition of 10 mL of an aqueous mixture of 1.5% (v/v) crop oil concentrate so that the final spray solutions contain 1.25% (v/v) crop oil concentrate. When technical materials are used, the concentrated stock solutions can be added to the spray solutions so that the final acetone and DMSO concentrations of the application solutions are 16.2% and 0.5%, respectively.
For treatments comprised of formulated and technical compounds, weighed amounts of the technical materials were placed individually in 25 mL glass vials and dissolved in a volume of 97:3 v/v acetone/DMSO to obtain 12× stock solutions, and measured amounts of the formulated compounds were placed individually in 25 mL glass vials and diluted in a volume of 1.5% (v/v) crop oil concentrate or water to obtain 12× stock solutions. […] Application solutions were prepared by adding an appropriate amount of each stock solution (e.g., 1 mL) and diluted to the appropriate final concentrations with the addition of an appropriate amount of an aqueous mixture of 1.5% (v/v) crop oil concentrate so that the final spray solutions contained 1.25% (v/v) crop oil concentrate. […]

[1] = Compound A Benzyl Ester 4.38 gae/ha alone
[2] = Compound A Benzyl Ester 8.75 gae/ha alone

COc1c(Cl)ccc(-c2nc(C(=O)OCc3ccccc3)c(Cl)c(N)c2F)c1F [Compound A Benzyl Ester]
Visual Weed Control (%) - 22 DAA SCPJU Obs (SCPJU; [1]): 75% | Visual Weed Control (%) - 22 DAA SCPJU Obs (SCPJU; [2]): 80% | Visual Weed Control (%) - 20 DAA ECHCO Obs (ECHCO; [1]): 40% | Visual Weed Control (%) - 20 DAA ECHCO Obs (ECHCO; [2]): 90%
